Data set [1] deals with Hepatitis B virus. Briefly: Antiviral activity against Hepatitis B virus infected in human HepG2.2.15 cells by solid phase radioimmunoassay. The following applies: HepG2 2.2.15. Type of data set: functional, organism-based.
Data set [2] is described as follows: Selectivity index, ratio of CC50 for human HepG2.2.15 cells to IC50 for Hepatitis B virus. Type of data set: toxicity. As to conditions: read-out: Ratio CC50/IC50.
A short description of data set [3]: Cytotoxicity against human HepG2.2.15 cells. Type of data set: cell-based, HepG2 2.2.15.
The test system of data set [4] is Hepatitis B virus. Description: Antiviral activity against Hepatitis B virus infected in C57BL/6 mouse assessed as reduction in viral DNA at 0.93 mmol/kg, po administered bid and measured on day 4 by qRT-PCR analysis. Type of data set: functional. Background: In qPCR the cycle at which signal appears reflects the starting amount.
The nature of data set [5]: Toxicity in C57BL/6 mouse infected with Hepatitis B virus assessed as reduction in body weight at 0.23 and 0.93 mmol/kg, po administered bid and observed for 6 days. Type of data set: organism-based. The following applies: in vivo, 144 h.
Data set [6] is described as follows: Tmax in ICR mouse at 50 mg/kg, po. The following applies: in vivo. Type of data set: ADME, organism-based.
A short description of data set [7]: Tmax in ICR mouse assessed as 4-fluoro-3-[(4-hydroxy-1-piperidyl)sulfonyl]-N-(3,4,5-trifluorophenyl)benzamide level at 50 mg/kg, po. Type of data set: ADME, organism-based. The following applies: in vivo.
Data set [8] in a line: AUC (0 to t) in ICR mouse at 50 mg/kg, po. Type of data set: ADME, organism-based. As to conditions: in vivo.
The nature of data set [9]: Cmax in ICR mouse assessed as 4-fluoro-3-[(4-hydroxy-1-piperidyl)sulfonyl]-N-(3,4,5-trifluorophenyl)benzamide level at 50 mg/kg, po. The following applies: in vivo. Type of data set: ADME, organism-based. Also on record: dose 50 mg/kg, route oral.
The nature of data set [10]: Solubility of compound assessed as 4-fluoro-3-[(4-hydroxy-1-piperidyl)sulfonyl]-N-(3,4,5-trifluorophenyl)benzamide level at pH 2. Type of data set: physicochemical. The following applies: buffer.
A short description of data set [11]: Cmax in ICR mouse at 50 mg/kg, po. Type of data set: ADME, organism-based. As to conditions: in vivo. Also noted: dose 50 mg/kg, route oral.
Data set [12] in a line: Half life in ICR mouse at 50 mg/kg, po. Type of data set: ADME, organism-based. As to conditions: in vivo.
A short description of data set [13]: MRT in ICR mouse at 50 mg/kg, po. As to conditions: in vivo. Type of data set: ADME, organism-based.
Data set [14] can be described thus: Half life in ICR mouse assessed as 4-fluoro-3-[(4-hydroxy-1-piperidyl)sulfonyl]-N-(3,4,5-trifluorophenyl)benzamide level at 50 mg/kg, po. The following applies: in vivo. Type of data set: ADME, organism-based.
Data set [15] has as its system Hepatitis B virus. Briefly: Antiviral activity against Hepatitis B virus infected in orally dosed C57BL/6 mouse assessed as reduction in viral DNA administered bid for daily and measured upto 6 days by qRT-PCR analysis. Type of data set: functional, organism-based.
A short description of data set [16]: AUC (0 to t) in ICR mouse assessed as 4-fluoro-3-[(4-hydroxy-1-piperidyl)sulfonyl]-N-(3,4,5-trifluorophenyl)benzamide level at 50 mg/kg, po. Type of data set: ADME, organism-based. As to conditions: in vivo.
Data set [17] has as its system Hepatitis B virus. Briefly: Antiviral activity against Hepatitis B virus infected in C57BL/6 mouse assessed as reduction in viral DNA at 0.93 mmol/kg, po administered bid and measured on day 2 by qRT-PCR analysis. Type of data set: functional.
The nature of data set [18]: MRT in ICR mouse assessed as 4-fluoro-3-[(4-hydroxy-1-piperidyl)sulfonyl]-N-(3,4,5-trifluorophenyl)benzamide level at 50 mg/kg, po. Type of data set: ADME, organism-based. As to conditions: in vivo.
Data set [19] is described as follows: Toxicity in C57BL/6 mouse infected with Hepatitis B virus assessed as reduction in body weight at 0.93 mmol/kg, po administered bid and observed for 6 days. Type of data set: organism-based. As to conditions: in vivo, 144 h.
Data set [20] in a line: Solubility of compound at pH 2 by HPLC-UV analysis. Type of data set: physicochemical. As to conditions: buffer.
The subject of data set [21] is Hepatitis B virus. Briefly: Antiviral activity against Hepatitis B virus infected in C57BL/6 mouse assessed as reduction in viral DNA at 0.1 mg/kg, po measured upto 6 days by qRT-PCR analysis. Type of data set: functional.

Values after ≈ are worked out from the molar mass of the structure shown.

In the data set on Hepatitis B virus [1], `CC(C)(C)[C@H](N)C(=O)OC1CCN(S(=O)(=O)c2cc(C(=O)Nc3cc(F)c(F)c(F)c3)ccc2F)CC1` came in with an IC50 of 560 nM. For the same compound, in data set [2], the selectivity ratio was over 17.9. This compound also yielded a CC50 in data set [3] of over 10000 nM.
For the compound `CC(C)[C@H](N)C(=O)OC1CCN(S(=O)(=O)c2cc(C(=O)Nc3cc(F)c(F)c(F)c3)ccc2F)CC1`, the 50% inhibitory concentration (IC50) in the data set on Hepatitis B virus [1] is 340 nM. The Activity is 0.67 log10IU/ml in the data set on Hepatitis B virus [4], “Non-Toxic” in [5], “Dose-dependent effect” in the data set with Hepatitis B virus [15] and 0.75 log10IU/ml in the data set with Hepatitis B virus [17]. The values for the Tmax in data set [6] and in data set [7] were 0.25 h and 0.5 h, respectively. The selectivity ratio in data set [2] is over 29.4. In data set [8], the AUC(0-t) was found to be 6.65 µg·h/mL. The Cmax in data set [9] was 45170 ng/mL; in [11], 11500 ng/mL. Further, in data set [10], the solubility is 700 µg/mL (≈ 1320 µM). Further, in data set [12], the half-life was 1.23 h. The MRT worked out at 0.97 h in data set [13] and 4.66 h in data set [18]. For the same compound, the t1/2 in [14] was determined as 3.53 h. In [16], the AUCt was found to be 258.9 µg·h/mL. Further, the half-maximal cytotoxic concentration (CC50) in data set [3] is over 10000 nM.
The compound `O=C(Nc1cc(F)c(F)c(F)c1)c1ccc(F)c(S(=O)(=O)N2CCC(O)CC2)c1` gave an IC50 in the data set with Hepatitis B virus [1] of 260 nM. Further, the Activity in the data set with Hepatitis B virus [4] is 0.6 log10IU/ml; in data set [19] it was “Non-Toxic”; with Hepatitis B virus [17] it was 0.53 log10IU/ml. In data set [6], the Tmax came out at 1.08 h. In addition, the selectivity ratio in data set [2] amounted to 18.5. In addition, the AUC(0-t) in data set [8] is 456 µg·h/mL. Moreover, the Cmax in data set [11] amounted to 66100 ng/mL. This compound gave a half-life in data set [12] of 8.14 h. Further, the MRT in data set [13] worked out at 10.7 h. For the same compound, in [20], the solubility is 3 µg/mL (≈ 6.94 µM). The compound also displayed a CC50 in [3] of 4810 nM.
`C[C@H](N)C(=O)OC1CCN(S(=O)(=O)c2cc(C(=O)Nc3cc(F)c(F)c(F)c3)ccc2F)CC1` showed a concentration for half-maximal inhibition (IC50) in the data set on Hepatitis B virus [1] of 280 nM. Further, in data set [2], the selectivity ratio turned out to be 17.2. In data set [3], this compound had a cytotoxic concentration (CC50) of 4810 nM.
For `NCC(=O)OC1CCN(S(=O)(=O)c2cc(C(=O)Nc3cc(F)c(F)c(F)c3)ccc2F)CC1`, in that order: 1400 nM, over 7.1 and over 10000 nM.
The matching figures for `CCC(C)[C@H](N)C(=O)OC1CCN(S(=O)(=O)c2cc(C(=O)Nc3cc(F)c(F)c(F)c3)ccc2F)CC1` (some centres undefined): 380 nM, over 26.3 and over 10000 nM.
For `N[C@@H](Cc1ccccc1)C(=O)OC1CCN(S(=O)(=O)c2cc(C(=O)Nc3cc(F)c(F)c(F)c3)ccc2F)CC1`, in that order: 350 nM, over 28.6 and over 10000 nM.
Regarding `C=C1[C@H](CO)[C@@H](O)C[C@@H]1n1cnc2c(=O)[nH]c(N)nc21.O` [ENTECAVIR], the Activity in the data set with Hepatitis B virus [21] is 1.67 log10IU/ml.
For `CC(C)C[C@H](N)C(=O)OC1CCN(S(=O)(=O)c2cc(C(=O)Nc3cc(F)c(F)c(F)c3)ccc2F)CC1`, the IC50 in the data set on Hepatitis B virus [1] was found to be 280 nM. Moreover, the selectivity ratio in [2] stood at 20.6. This compound also registered a CC50 in [3] of 5770 nM.

For orientation: IC50 means the concentration that inhibits the measured activity by half. Low values mean higher potency, high ones lower potency. Usually CC50 stands for the concentration that lowers cell viability or growth by half. Usually Tmax stands for the time at which the peak concentration occurs. The term AUC(0-t) denotes the area under the concentration-time curve up to a stated or last time point. High values mean more exposure, low ones less exposure. One may read the Cmax as the maximum level reached in the sampled fluid or tissue. Broadly, the solubility is the dissolved amount per volume that the medium holds. What is called half-life is the time in which the quantity being followed falls by half. As usually defined, the MRT is the average time that molecules of a dose stay in the body.

(Values after ChEMBL document CHEMBL4619714, “Amino acid prodrugs of NVR3-778: Design, synthesis and anti-HBV activity” (Bioorg Med Chem Lett, 2020).)
